pIC50, pKi: −log10 of the molar value. Like-named read-outs stand apart in the source and are kept apart here.
Key:
cholesterol esterase [1] = test: Inhibition of cholesterol oleate hydrolysis by cow pancreatic cholesterol esterase; assay type: biochemical; conditions: enzyme from the cow
Source text: (§1) These sulfated polysaccharides are also inhibitors of animal pancreatic cholesterol esterase.

[2] = system: Colonic adenocarcinoma cells (CaCo-2); test: Cholesterol esterase catalyzed cholesterol uptake by CaCo-2 cells; assay type: cell-based; conditions: CaCo-2, bovine 72 kDa cholesterol esterase
Protocol: Colonic adenocarcinoma cells (CaCo-2, American Type Culture Collection) were grown to a density of 2×10^6 cells on […] coverslips in Dulbecco's Moditied Eagle's Medium containing 10% (v/v) lipoprotein depleted serum. The coverslips were washed with phosphate buffered saline (PBS) and transferred to 35 mm wells containing 1.0 ml PBS, 2 mM taurocholate and 1% bovine serum albumin. The cells were then incubated at 37° C. with 0.01 uCi of ^3 H cholesterol and 0.01 uCi of ^14 C-cholesteryl oleate, which were embedded in phosphatidylcholine vesicles. The control wells received no cholesterol esterase while the experimental set received bovine 72 kDa cholesterol esterase. At various incubation times the coverslips were removed, washed three times with PBS, and the cells were collected by scraping and washing with 250 mM tris glycine buffer (pH 8.8) containing 0.1% SDS. The cells were collected by centrifugation and the pellet was heated at 100° C. for five minutes and then sonicated for ten minutes. The uptake of cholesterol, either from free sterol or from cholesteryl oleate, was determined by scintillation counting for ^3 H or ^14 C, respectively.

[3] = molecular target: human 100 kDa cholesterol esterase; test: Inhibition of triolein hydrolysis by human 100 kDa cholesterol esterase; assay type: biochemical; conditions: Table 3; triolein as substrate
Protocol: Alginic acid from Macrocystis pyrifera (kelp) was dissolved in water at a concentration of 1 mg/ml. This stock solution was used to prepare various polysaccharide concentrations down to 10^-5 mg/ml. Human pancreatic cholesterol esterase was purified as described by Bosner et al., Proc. Nat'l, Acad, Sci., 85, 7438 (1988). To measure cholesterol esterase inhibition by alginic acid, 50 μl of cholesterol esterase (10 μg/ml), 75 μl of phosphatidylcholine vesicles containing cholesteryl ^14 C-oleate (1 mM 2,000 CPM/nmole), 25 μl of 100 mM taurocholate, 120 μl of 150 mM Tris, pH 7.5 and 30 μl of test alginic acid solution were incubated at 37° C. for fifteen minutes. The assay was quenched by placing the reaction vessels in a 4° C. ice bath and by adding 0.6 ml of 0.3 N NaOH and 3 ml of benzene/chloroform/methanol (1.0/1.2/0.5). The quenched reactions were vortexed for 30 seconds, centrifuged at 3,000 g for 15 minutes and 1 ml of the upper aqueous phase was added to 7 ml of Aquasol-2 (DuPont) with 0.025 ml of 6 N HCl. These mixtures were vortexed for one minute and counted for ^14 C-oleate. The counts were compared to a sample which contained cholesterol esterase but no alginic acid to determine the percentage of inhibition.
(The same assay procedure was used as described in Part I, only triolein was used instead of cholesteryl oleate.) As shown in the table below, the IC50 for inhibition of triolein hydrolysis is nearly the same as that for cholesteryl oleate hydrolysis.

cholesterol esterase [4] = test: Inhibition of cholesterol oleate hydrolysis by pig pancreatic cholesterol esterase; assay type: biochemical; conditions: enzyme from pig pancreas
Source text: as §1

[5] = Serum radiolabeled cholesterol in rabbit fed cellulose sulfate chow; assay type: in vivo, New Zealand White rabbit; conditions: chow with 0.5% cellulose sulfate
Source text: A New Zealand White rabbit was maintained on regular rabbit chow. Two days before the experiment began the animal was fed chow to which cellulose sulfate had been added to give a final concentration of 0.5%. After 12 hrs. on regular chow then, the experiment began with the administration of ^14 C-cholesteryl oleate as described above. The animal was then allowed to eat and drink regular chow in a normal manner. Blood samples were withdrawn from an ear vein and the radiolabeled cholesterol measured by scintillation counting. […] In contrast, in the control animal, label appears only two hours after its administration.

cholesterol esterase [6] = test: Inhibition of cholesterol oleate hydrolysis by rabbit pancreatic cholesterol esterase; assay type: biochemical; conditions: enzyme from rabbit pancreas
Source text: as §1

[7] = molecular target: T1, Human pancreatic cholesterol esterase (Homo sapiens, UniProt P19835); test: Inhibition of human pancreatic cholesterol esterase, cholesteryl 14C-oleate hydrolysis; assay type: biochemical; conditions: for pIC50: read-out: IC50
T1 construct: Human pancreatic cholesterol esterase was purified as described by Bosner et al; from tissue; host or cells: human pancreas (purified to homogeneity)
T1 sequence (P19835 21-753): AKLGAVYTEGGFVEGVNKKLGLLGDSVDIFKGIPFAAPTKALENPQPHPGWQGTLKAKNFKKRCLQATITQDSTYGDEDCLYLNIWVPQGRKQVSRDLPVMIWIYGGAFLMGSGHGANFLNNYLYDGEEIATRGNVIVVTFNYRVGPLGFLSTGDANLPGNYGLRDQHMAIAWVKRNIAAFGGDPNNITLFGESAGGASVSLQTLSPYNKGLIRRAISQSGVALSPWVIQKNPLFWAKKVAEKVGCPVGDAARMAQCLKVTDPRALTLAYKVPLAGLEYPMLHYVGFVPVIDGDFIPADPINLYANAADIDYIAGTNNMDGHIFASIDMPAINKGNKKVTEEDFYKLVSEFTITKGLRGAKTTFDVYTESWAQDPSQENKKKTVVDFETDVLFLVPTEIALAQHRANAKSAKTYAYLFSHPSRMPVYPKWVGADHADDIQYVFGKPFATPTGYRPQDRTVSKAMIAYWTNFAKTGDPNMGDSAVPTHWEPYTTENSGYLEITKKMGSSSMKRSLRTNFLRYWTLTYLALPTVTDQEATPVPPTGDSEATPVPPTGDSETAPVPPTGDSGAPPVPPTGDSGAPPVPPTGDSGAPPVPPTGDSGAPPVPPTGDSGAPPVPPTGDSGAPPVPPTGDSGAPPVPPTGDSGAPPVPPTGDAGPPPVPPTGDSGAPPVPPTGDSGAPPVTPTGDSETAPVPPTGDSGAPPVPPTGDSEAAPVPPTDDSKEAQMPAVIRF
Protocol: Human pancreatic cholesterol esterase was purified as described by Bosner et al., Proc, Natl. Acad. Sci,, 85, 7438 (1988). To measure pancreatic cholesterol esterase inhibition by sulfated agar, 50 μl of pancreatic cholesterol esterase (10 μg/ml), 75 μl of phosphatidylcholine vesicles containing cholesteryl ^14 C-oleate (1 mM 2,000 CPM/nmole), 25 μl of 100 mM taurocholate, 120 μl of 150 mM Tris, pH 7.5 and 30 μl of test sulfated agar solution were incubated at 37° C. for fifteen minutes. The assay was quenched by placing the reaction vessels in a 4° C. ice bath and by adding 0.6 ml of 0.3 N NaOH and 3 ml of benzene/chloroform/methanol (1.0/1.2/0.5). The quenched reactions were vortexed for 30 seconds, centrifuged at 3,000 g for 15 minutes and 1 ml of the upper aqueous phase was added to 7 ml of Aquasol-2 (DuPont) with 0.025 ml of 6 N HCl. These mixtures were vortexed for one minute and counted for ^14 C-oleate. The counts were compared to a sample which contained cholesterol esterase but no sulfated agar to determine the percentage of inhibition.

[8] = In vivo cholesterol uptake in cholesteryl oleate fed rabbit, nasogastric dosing
Protocol: Inhibition of cholesterol uptake from either free cholesterol or from cholesteryl oleate was examined in vivo using cellulose sulfate. A rabbit which had been fed cholesteryl oleate for six weeks was fasted for twelve hours and a nasogastric cube was inserted into its stomach. Five ml of a cellulose sulfate solution (100 mg/ml) in Tris buffer were added followed by 10 ml of 20 uCi of ^3 H cholesterol incorporated in phosphatidylcholine vesicles and 10 ml of 20 uCi of ^14 C cholesteryl oleate. The nasogastric tube was then flushed with an additional 5 ml of cellulose sulfate solution (100 mg/ml). After the tube was removed, blood was drawn from an ear vein as a function of time and 100 μl of plasma was counted for ^14 C and ^3 H. As shown, cellulose sulfate inhibited by 85% the uptake of either free cholesterol or cholesterol derived from cholesteryl oleate (FIG. 5).

cholesterol esterase [9] = test: Inhibition of cholesterol oleate hydrolysis by rat pancreatic cholesterol esterase; assay type: biochemical; conditions: enzyme from rat pancreas
Source text: as §1

cholesterol esterase [10] = test: Stability under baking conditions: cholesterol esterase inhibition by muffin supernatant; conditions: retention of inhibitory activity
Protocol: The sulfated polysaccharides described here retain their inhibitory activity for prolonged periods at elevated temperatures. […] For example, 109 mg of cellulose sulfate were added to 198 gm (7 oz) of corn muffin mix (Gold Medal,) and the solid ingredients were thoroughly mixed together. After the addition of one egg and one third cup milk, the muffin mix was stirred fifteen times. The mixture was poured into nine muffin tins and baked for fifteen minutes in a 400° oven. The next day one muffin was broken up, added to 100 ml of water and allowed to stand for fifteen minutes. The mixture was centrifuged and the clear supernatant was assayed for the presence of cholesterol esterase inhibition. The IC50 of this solution was achieved when this solution was diluted 10^3 -10^4 times.

cholesterol esterase [11] = conditions: Bosner et al., 1988; cited from earlier work
[12] = molecular target: 52 kDa human pancreatic triglyceride lipage; conditions: literature; cited from earlier work
[13] = molecular target: cholesterol esterase from rat; conditions: Borgstrom 1988; water soluble artificial and colorimetric substrates; cited from earlier work
[14] = Table 3, cholesteryl oleate as substrate, read-out: IC50 (nM) Cholesteryl Oleate
[15] = cholesteryl oleate hydrolysis, molar value based on assumed polymer molecular weight

Cellulose Sulfate
pKi (cholesterol esterase [1]): 7.00 | uptake of cholesterol derived from cholesteryl oleate by the cells ([2]; FIG. 4a): markedly inhibits cholesterol uptake | uptake of free cholesterol by the cells ([2]; FIG. 4b): markedly inhibits cholesterol uptake | IC50 [3]: 0.06 nM | inhibition of cholesterol oleate hydrolysis (cholesterol esterase [4]): inhibits | time until cholesterol appears in serum after administration of the label [5]: four | reduction of level of serum cholesterol compared to control rabbit ([5]; 14C-cholesteryl oleate label, FIG. 7): 50% | inhibition of cholesterol oleate hydrolysis (cholesterol esterase [6]): inhibits | pIC50 ([7]; Table 2): 10.70 | IC50 [7, 14]: 0.02 nM | pIC50 [7, 15]: 10.70 | inhibition of uptake of free cholesterol ([8]; rabbit, nasogastric cellulose sulfate 100 mg/ml, 3H cholesterol in plasma, FIG. 5): 85% | inhibition of uptake of cholesterol derived from cholesteryl oleate ([8]; rabbit, nasogastric cellulose sulfate 100 mg/ml, 14C in plasma, FIG. 5): 85% | absorption of free cholesterol ([8]; rabbits): decreases absorption of free cholesterol | decrease of cholesterol absorption ([8]; rabbits fed cholesterol oleate): over 70% | inhibition of cholesterol oleate hydrolysis (cholesterol esterase [9]): inhibits | stability at elevated temperatures / baking conditions (cholesterol esterase [10]): stable under baking conditions

Chitosan Sulfate
IC50 [3]: 0.85 nM | pIC50 ([7]; Table 2): 9.80 | IC50 [7, 14]: 0.3 nM | pIC50 [7, 15]: 9.52

chondroitan sulfate
interaction with cholesterol esterase (cholesterol esterase [11]): does not interact with cholesterol esterase

Alginic acid [reference compound]
IC50 [3]: 42 nM | pIC50 ([7]; Table 1): 7.70 | Enhancement Factor ([7]; Table 1, relative to alginic acid): 1.0 | IC50 [7, 14]: 20 nM | IC50 ([7]; cholesteryl oleate hydrolysis): 4 µg/mL | pIC50 [7, 15]: 7.70

Chitin Sulfate
IC50 [3]: 0.35 nM | pIC50 ([7]; Table 2): 9.80 | IC50 [7, 14]: 0.3 nM | pIC50 [7, 15]: 9.52

pectin [native, unsulfated pectin, reference compound]
inhibition of cholesterol esterase (in words) ([7]; hydrolysis of cholesterol esters): does not inhibit cholesterol esterase

CCCCCCCCCCC[C@@H](C[C@@H]1OC(=O)[C@H]1CCCCCC)OC(=O)[C@H](CC(C)C)NC=O [tetrahydrolipstatin]
pKi [12]: 7.00 | pKi [13]: 4.00

From patent US5616570A, “Use of non-absorbable synthetic sulfated polysaccharides to decrease cholesterol absorbtion” (priority 1994, dated 1997)
